Data published in patent publication US8093218B2, “Peptide derived from vascular endothelial growth factor receptor-1 binding integrin α5β1 having proangiogenic activity” (Provincia Italiana della Congregazione dei Figli …, priority 2006, dated 2012).
Entries after “also recorded” stand apart in the source; their conditions may differ.

Assays:
[1] = tested on: HUVEC adhesion to peptide 12; assay: adhesion of HUVEC to peptide 12 in presence of chelating agents or anti-integrin antibodies; assay type: cell-based, human; settings: HUVEC on plates covered with peptide 12
Procedure: The peptide 12 or the BSA, as non-specific adhesion control, were linked on plates and the HUVEC added in the presence of chelating agents (EDTA or EGTA).
The HUVEC were pre-incubated with an antibody against the integrin α5β1 or versus the integrinic subunit α6 and left to adhere on plates covered with peptide 12 or BSA.

HUVEC [2] = assay: formation of tubules of EC in Type I collagen gel; assay type: cell-based, human
Procedure: It was tested the ability of the peptide 12 to induce the formation of tubules of EC. HUVEC cells were plated on 24 wells plates previously covered with a mixture of gel Type I collagen, in the absence or presence of 500 μg/ml peptide 12 or peptide 1. A second layer of gel Type I collagen was placed on the adherent cells. As shown, in the absence or presence of peptides, were added, in the culture medium, different concentrations of VEGF (40 or 100 nM), or 20 μg/ml of protein VEGFR-1/Fc.

[3] = tested on: HUVEC migration induced from VEGFR-1/Fc; assay: EC migration in Boyden chambers induced by VEGFR-1/Fc; assay type: cell-based, human; settings: HUVEC pre-incubated with peptide
Procedure: In order to investigate the ability to peptide 12 to influence the migration of the EC induced from VEGFR-1/Fc, a process mediated from the integrin α5β1, the HUVEC were pre-incubated with peptide 12 and peptide 1 and placed in Boyden chambers in order to analyze the migration induced from VEGFR-1/Fc or fibronectin (FN). Data represent the average of 14 microscopic fields and are referred to as percentage of inhibition compared to the migration observed in the absence of peptides.

HUVEC [4] = assay: cellular adhesion of HUVEC to alanine-substituted peptide 12 mutants; assay type: cell-based, human; settings: mutant peptides covalently linked to plates
Procedure: These peptides were tested for their ability to directly support the cellular adhesion. The ten peptides were covalently linked to plates, and were also tested, as negative controls, a peptide “scrambled” in which the amino acid sequence of the peptide 12 was modified (see Table 1.) (sP12) and BSA. The HUVEC were plated and allow to adhere. The results were expressed as percentage of the cellular adhesion observed on plates covered with the peptide 12.

integrin α5β1 [5] = biological target: T1, integrin α5β1 (Homo sapiens, UniProt P05556+P08648); assay: solid-phase binding of integrin α5β1 to alanine-substituted peptide 12 mutants; settings: purified integrin α5β1 on plates covered with mutant peptides
T1 sequence (P08648 42-894 limits assumed): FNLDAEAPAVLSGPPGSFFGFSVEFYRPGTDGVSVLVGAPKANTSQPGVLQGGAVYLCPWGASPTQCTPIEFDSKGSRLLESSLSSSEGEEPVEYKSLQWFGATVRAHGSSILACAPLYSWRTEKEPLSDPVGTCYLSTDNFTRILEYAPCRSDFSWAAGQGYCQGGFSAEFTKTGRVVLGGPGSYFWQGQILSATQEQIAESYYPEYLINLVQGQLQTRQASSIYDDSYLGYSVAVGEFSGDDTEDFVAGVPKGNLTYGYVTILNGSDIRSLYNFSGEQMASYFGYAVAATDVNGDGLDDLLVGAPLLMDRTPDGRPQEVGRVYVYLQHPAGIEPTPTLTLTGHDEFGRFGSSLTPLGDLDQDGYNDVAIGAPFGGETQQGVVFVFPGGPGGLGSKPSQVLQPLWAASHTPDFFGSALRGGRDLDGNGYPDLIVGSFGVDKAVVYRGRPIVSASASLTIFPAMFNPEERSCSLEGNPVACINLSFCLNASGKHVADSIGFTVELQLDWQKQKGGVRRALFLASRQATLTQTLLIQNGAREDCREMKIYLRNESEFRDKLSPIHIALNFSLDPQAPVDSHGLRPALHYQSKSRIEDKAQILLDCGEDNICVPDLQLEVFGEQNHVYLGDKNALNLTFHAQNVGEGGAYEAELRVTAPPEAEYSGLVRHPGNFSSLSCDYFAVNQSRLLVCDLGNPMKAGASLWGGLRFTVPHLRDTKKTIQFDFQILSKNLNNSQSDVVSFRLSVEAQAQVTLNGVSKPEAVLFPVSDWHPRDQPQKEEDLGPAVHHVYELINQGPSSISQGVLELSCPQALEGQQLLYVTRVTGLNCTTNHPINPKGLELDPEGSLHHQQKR
T1 sequence (P08648 895-1049 partner limits assumed): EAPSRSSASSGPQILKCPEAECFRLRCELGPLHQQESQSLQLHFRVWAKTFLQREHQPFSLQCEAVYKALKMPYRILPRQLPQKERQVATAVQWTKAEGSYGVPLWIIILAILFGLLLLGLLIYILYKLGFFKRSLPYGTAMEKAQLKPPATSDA
T1 sequence (P05556 21-798): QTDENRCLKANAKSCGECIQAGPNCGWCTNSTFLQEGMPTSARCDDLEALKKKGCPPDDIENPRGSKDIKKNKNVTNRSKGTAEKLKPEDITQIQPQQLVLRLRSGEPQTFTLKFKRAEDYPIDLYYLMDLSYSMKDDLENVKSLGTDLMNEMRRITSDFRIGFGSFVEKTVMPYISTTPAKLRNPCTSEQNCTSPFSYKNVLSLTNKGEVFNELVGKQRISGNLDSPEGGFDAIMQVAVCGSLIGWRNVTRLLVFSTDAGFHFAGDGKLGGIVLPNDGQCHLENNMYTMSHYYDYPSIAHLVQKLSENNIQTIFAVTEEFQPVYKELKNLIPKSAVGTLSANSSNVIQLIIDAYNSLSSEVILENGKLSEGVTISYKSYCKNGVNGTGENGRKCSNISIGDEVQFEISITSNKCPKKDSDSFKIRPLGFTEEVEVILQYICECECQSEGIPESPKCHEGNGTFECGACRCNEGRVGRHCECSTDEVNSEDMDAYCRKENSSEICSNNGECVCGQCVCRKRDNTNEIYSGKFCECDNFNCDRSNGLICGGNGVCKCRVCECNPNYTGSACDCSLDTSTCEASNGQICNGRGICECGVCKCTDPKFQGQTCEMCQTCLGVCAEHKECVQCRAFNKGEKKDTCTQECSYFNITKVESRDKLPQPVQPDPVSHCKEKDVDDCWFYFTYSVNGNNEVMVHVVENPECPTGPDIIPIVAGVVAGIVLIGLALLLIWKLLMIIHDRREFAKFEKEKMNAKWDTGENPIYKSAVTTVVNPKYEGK
Procedure: Was also assessed the direct binding to integrin α5β1 with mutant peptides by a binding test on solid phase. The integrin α5β1 purified was added to plates covered with the various peptides and the amount bound was measured using an antibody anti-integrin α5β1 with a calorimetric method. The data were expressed as percentage of protein linked observed on plates covered with the original peptide 12.

[6] = tested on: HUVEC adhesion to VEGFR-1/Fc; assay: inhibition by peptides of EC adhesion to VEGFR-1/Fc; assay type: cell-based, human; settings: peptide added to HUVEC suspension before plating
Procedure: (§1) In order to test the ability of the twelve chosen peptides to inhibit the adhesion of the EC to VEGFR-1 mediated from the integrin α5β1, every peptide was added to one suspension of HUVEC before plated on dishes covered with VEGFR-1/Fc or fibronectin (FN). The data were indicated as percentage of adhesion, calculated to the number of cells adhered on the substrate itself in absence of peptides.

[7] = tested on: HUVEC adhesion to fibronectin (FN); assay: inhibition by peptides of EC adhesion to fibronectin; assay type: cell-based, human; settings: peptide added to HUVEC suspension before plating
Procedure: as §1

integrin α5β1 [8] = biological target: T1, integrin α5β1; assay: integrin α5β1 aggregation around peptide-coated magnetic beads (immunostaining); assay type: cell-based; set-up: endogenous in cells; host or cells: HUVEC; settings: magnetic beads coated with peptide, immunostaining for integrin α5β1
Procedure: The integrins not linked are widely distributed on cellular membrane, but after the ligand binding and the activation merged in distinct structures called focal contacts and ECM contact.
(§2) It was examined whether the peptide 12 was able to induce aggregation of integrin α5β1 after the binding. EC adherent cells were incubated with magnetic beads coated with peptide 12, or peptide RGD or peptide RGE respectively as positive and negative controls, and immunostained with an antibody against integrin α5β1.

integrin α5β1 [9] = biological target: T1, integrin α5β1; assay: solid-phase binding of purified integrin α5β1 to plates covered with dII or VEGFR-1/Fc; settings: anti-integrin α5β1 antibody, colorimetric, absorbance at 405 nm
Procedure: The direct bind of the integrin α5β1 to the domain had been determined also with binding test on solid phase. The purified integrin α5β1 was added to plates covered with dII or with VEGFR-1/Fc like positive control and the integrin bound was measured using an antibody anti-integrin α5β1 and a colorimetric test.

[10] = biological target: T2, integrin α5β1 on endothelial cells derived from human umbilical vein (HUVEC) (human, UniProt P08648 42-1049; P05556 21-798); assay: magnetic beads coated with peptide on adherent HUVEC, immunostaining for integrin α5β1
T2 construct: whole, on cells; Endogenous integrin on HUVEC in the adhesion, migration and bead tests; also called integrin α5β1 of the EC
T2 sequence (P08648 42-1049, chain 1 of 2): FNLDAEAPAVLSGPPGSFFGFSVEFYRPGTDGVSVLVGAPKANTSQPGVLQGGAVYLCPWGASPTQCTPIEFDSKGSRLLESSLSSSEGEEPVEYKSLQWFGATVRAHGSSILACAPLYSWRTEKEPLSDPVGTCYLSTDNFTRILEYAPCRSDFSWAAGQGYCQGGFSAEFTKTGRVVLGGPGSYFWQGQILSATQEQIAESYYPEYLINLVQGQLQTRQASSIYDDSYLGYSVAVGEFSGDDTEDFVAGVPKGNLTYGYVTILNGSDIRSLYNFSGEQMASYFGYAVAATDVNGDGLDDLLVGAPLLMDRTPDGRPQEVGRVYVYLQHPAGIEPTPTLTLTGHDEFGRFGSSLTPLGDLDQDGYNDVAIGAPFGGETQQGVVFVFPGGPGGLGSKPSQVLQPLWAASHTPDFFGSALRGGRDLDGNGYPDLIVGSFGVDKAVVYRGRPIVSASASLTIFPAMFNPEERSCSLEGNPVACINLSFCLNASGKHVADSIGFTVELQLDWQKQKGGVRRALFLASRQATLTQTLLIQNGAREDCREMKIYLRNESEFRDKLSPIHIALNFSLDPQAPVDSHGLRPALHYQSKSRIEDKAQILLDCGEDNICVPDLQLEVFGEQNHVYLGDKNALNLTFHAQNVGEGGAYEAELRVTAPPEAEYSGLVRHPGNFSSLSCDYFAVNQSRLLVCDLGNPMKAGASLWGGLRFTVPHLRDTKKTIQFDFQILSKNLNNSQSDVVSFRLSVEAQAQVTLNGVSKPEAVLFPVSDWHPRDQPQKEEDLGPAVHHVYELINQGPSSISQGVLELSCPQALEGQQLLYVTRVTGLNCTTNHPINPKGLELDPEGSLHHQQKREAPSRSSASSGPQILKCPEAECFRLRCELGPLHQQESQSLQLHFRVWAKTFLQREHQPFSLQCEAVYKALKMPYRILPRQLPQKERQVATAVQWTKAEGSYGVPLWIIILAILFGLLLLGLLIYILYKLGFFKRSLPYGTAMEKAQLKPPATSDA
T2 sequence (P05556 21-798, chain 2 of 2): as the sequence (P05556 21-798) above
Procedure: as §2

## O=C(O)CN(CCN(CC(=O)O)CC(=O)O)CC(=O)O [EDTA, reference compound]
[1]
  effect of agent on adhesion of EC to peptide 12: completely abolished adhesion of EC

## O=C(O)CN(CCOCCOCCN(CC(=O)O)CC(=O)O)CC(=O)O [EGTA, reference compound]
[1]
  effect of agent on adhesion of EC to peptide 12: completely abolished adhesion of EC

## GRPFVEMYSE (listed as Homo sapiens) [peptide 1, used as negative control]
HUVEC [2]; 500 μg/ml peptide with VEGF 40 nM
  effect on VEGF-induced tubule formation: neither increased the effect of VEGF
HUVEC [2]; 500 μg/ml peptide, collagen I matrix
  induction of formation of tubules of EC: did not induce the formation of tubules
[3]
  inhibition of EC migration induced by VEGFR-1/Fc: completely ineffective

## His 223 peptide mutant in Ala: peptide 12 with His 223 mutated to alanine (NYLTARQ)
HUVEC [4]
  cellular adhesion to mutant peptide relative to peptide 12: comparable
HUVEC [4]; listed as His 223
  cellular adhesion to mutant peptide relative to peptide 12: significantly reduce
Integrin α5β1 [5]
  role of replaced residue in integrin α5β1 binding to mutant peptide relative to peptide 12: important in supporting the protein/protein interaction

## KFPLDTLIPDG (listed as Homo sapiens) [peptide 7]
[6]
  inhibition of adhesion of EC to VEGFR-1/Fc: effectively blocked; also recorded: inhibit cellular adhesion to sVEGFR-1
[7]
  inhibition of adhesion of EC to fibronectin: partially inhibit

## RGE [peptide RGE, reference compound]
Integrin α5β1 [8]
  integrin α5β1 aggregation / bead attachment on EC: No beads covered with the peptide RGE was attached with HUVEC

## TEGRELVIPARVT (listed as Homo sapiens) [peptide 4]
[6]
  inhibition of adhesion of EC to VEGFR-1/Fc: effectively blocked; also recorded: inhibit cellular adhesion to sVEGFR-1
[7]
  inhibition of adhesion of EC to fibronectin: partially inhibit

## Y220A: peptide 12 with Tyr 220 replaced with alanine (NALTHRQ)
HUVEC [4]
  cellular adhesion to mutant peptide relative to peptide 12: significantly reduce
HUVEC [4]; listed as Tyr 220 with ALA
  cellular adhesion to mutant peptide relative to peptide 12: completely abolished cellular adhesion
Integrin α5β1 [5]
  role of replaced residue in integrin α5β1 binding to mutant peptide relative to peptide 12: residue more critical to the integrin binding

B1: VEGFR-1/Fc: sVEGFR-1 fusion protein with the Fc domain of human immunoglobulins (protein)
chain: SKLKDPELSLKGTQHIMQAGQTLHLQCRGEAAHKWSLPEMVSKESERLSITKSACGRNGKQFCSTLTLNTAQANHTGFYSCKYLAVPTSKKKETESAIYIFISDTGRPFVEMYSEIPEIIHMTEGRELVIPCRVTSPNITVTLKKFPLDTLIPDGKRIIWDSRKGFIISNATYKEIGLLTCEATVNGHLYKTNYLTHRQTNTIIDVQISTPRPVKLLRGHTLVLNCTATTPLNTRVQMTWSYPDEKNKRASVRRRIDQSNSHANIFYSVLTIDKMQNKDKGLYTCRVRSGPSFKSVNTSVHIYDKAFITVKHRKQQVLETVAGKRSYRLSMKVKAFPSPEVVWLKDGLPATEKSARYLTRGYSLIIKDVTEEDAGNYTILLSIKQSNVFKNLTATLIVNVKPQIYEKAVSSFPDPALYPLGSRQILTCTAYGIPQPTIKWFWHPCNHNHSEARCDFCSNNEESFILDADSNMGNRIESITQRMAIIEGKNKMASTLVVADSRISGIYICIASNKVGTVGRNISFYITDVPNGFHVNLEKMPTEGEDLKLSCTVNKFLYRDVTWILLRTVNNRTMHYSISKQKMAITKEHSITLNLTIMNVSLQDSGTYACRARNVYTGEEILQKKEITIRGEHCNKKAVFSRISKFKSTRNDCTTQSNVKH
modifications: left off: a dimerising Fc or GST
notes: sVEGFR-1 fusion protein with the Fc domain of human immunoglobulins
HUVEC [2]; 20 μg/ml VEGFR-1/Fc in culture medium
  effect of VEGFR-1/Fc on constitution of tubules: strong inhibition of the constitution of tubules
Integrin α5β1 [9]
  amount of integrin α5β1 bound to coated protein: a similar amount of integrin interacted

B2: peptide 12 (NYLTHRQ, VEGFR-1 residues 219-225) (peptide)
peptide: NYLTHRQ
notes: Covalently linked to plates or coated on magnetic beads, or added in solution to HUVEC; also called P12; original peptide 12
[10]
  binding result: binds
